Data on 20 compounds can be found in patent US20230293458A1, “MULTIBIOTIC AGENTS AND METHODS OF USING THE SAME” (Flagship Pioneering Innovations V, Inc., priority 2017, published 2023).

A short description of data set [1]: Stability of multibiotic agents in Simulated Gastric Fluid (SGF). It is filed as in vitro ADME. The following applies: simulated gastric fluid pH 1.6 with pepsin, 37° C., 1 μM. As to the method:
Assay 3. Stability of multibiotic agents in Simulated Gastric Fluid (SGF). This assay can be used to assess the stability of a multibiotic agent in a stomach.
Medium was prepared by dissolving 2 g of sodium chloride in 0.6 L in ultrapure water (MilliQ®, Millipore Sigma, Darmstadt, Germany). The pH was adjusted to 1.6 with 1 N hydrochloric acid, and the volume was then adjusted to 1 L with purified water.
60 mg FaSSIF powder (Biorelevant™, London, UK) were dissolved in 500 mL buffer (above). Pepsin was added (0.1 mg/mL) (Millipore Sigma, Darmstadt, Germany), and the solution was stirred. The resulting SGF media were used fresh for each experiment.
Test compounds were dissolved in DMSO stock to 1 mM. An aliquot of the DMSO stock solution was removed and diluted in the SGF Media in 15 mL falcon tubes to generate a total compound concentration of 1 μM. A 1 mL aliquot was immediately removed and diluted once with 1 volume of acetonitrile for T0 timepoint. The mixture was sealed and mixed at 37° C. in an incubator. Aliquots (1 mL) were removed at regular intervals and immediately quenched by the addition of 1 volume of acetonitrile. The resulting samples were analyzed by LC/MS to determine degradation rates in SGF.

Data set [2] in a line: Stability of multibiotic agents in Simulated Intestinal Fluid (SIF). The following applies: simulated intestinal fluid pH 6.7 with pancreatin, 37° C., 1 μM. The data set is classed as in vitro ADME. Here is the method: Assay 2. Stability of multibiotic agents in Simulated Intestinal Fluid (SIF). This assay can be used to assess the stability of a multibiotic agent in a small intestine. Phosphate buffer was prepared by dissolving 0.42 g of sodium hydroxide pellets and 3.95 g of monobasic sodium phosphate monohydrate and 6.19 g of sodium chloride in ultrapure water (MilliQ®, Millipore Sigma, Darmstadt, Germany). The pH was adjusted to 6.7 using aq. HCl and aq. NaOH, as necessary, and the solution was diluted with ultrapure water to produce 1 L of the pH 6.7 buffer. 112 mg FaSSIF powder (Biorelevant™, London, UK) was dissolved in 50 mL of the pH 6.7 buffer. 2 to 3 mL of the resulting solution were then added to 500 mg pancreatin (Millipore Sigma, Darmstadt, Germany). The resulting mixture was agitated by finger tapping the vessel containing the mixture until milky suspension formed. At this time, the remainder of the 50 mL FaSSiF/pH 6.7 buffer solution was added. The resulting suspension was flipped upside down 10 times to produce SIF, which was used fresh. Test compounds are dissolved in DMSO stock to 1 mM. An aliquot of the DMSO stock solution is removed and diluted in the SIF media in 15 mL falcon tubes to produce a mixture with a tested compound concentration of 1 μM. A 1 mL aliquot is immediately removed and diluted once with 1 volume of acetonitrile for T0 timepoint. The mixture is sealed and agitated at 37° C. in an incubator. Aliquots (1 mL) are removed at regular intervals and immediately quenched by the addition of 1 volume of acetonitrile. The resulting samples are analyzed by LC/MS to determine degradation rates.

Turning to `O=C(Cc1c[nH]c2ccccc12)OC[C@H](OC(=O)Cc1c[nH]c2ccccc12)[C@@H](COC(=O)Cc1c[nH]c2ccccc12)OC(=O)Cc1c[nH]c2ccccc12` [Example 105, [(2R,3S)-2,3,4-tris[[2-(1H-indol-3-yl)acetyl]oxy]butyl] 2-(1H-indol-3-yl)acetate], the “Assay 2 (SGF) (% Remaining @ 4 hours)” value in data set [1] is on record as “C (>75% of the tested compound remaining)”. The “Assay 3 (SIF) (% @ Remaining 4 hours)” value in data set [2] was “B (25-75% of the tested compound remaining)”.
`Cc1ncc(COC(=O)Cc2c[nH]c3ccccc23)c(COC(=O)Cc2c[nH]c3ccccc23)c1OC(=O)Cc1c[nH]c2ccccc12` [Example 102, [5-[2-(1H-indol-3-yl)acetyl]oxy-4-[[2-(1H-indol-3-yl)acetyl]oxymethyl]-6-methyl-3-pyridyl]methyl 2-(1H-indol-3-yl)acetate]: the “Assay 2 (SGF) (% Remaining @ 4 hours)” value in data set [1] is recorded as “C (>75% of the tested compound remaining)”. Besides, the “Assay 3 (SIF) (% @ Remaining 4 hours)” value in data set [2] is recorded as “B (25-75% of the tested compound remaining)”.
The like results for `O=C(CCc1c[nH]c2ccccc12)OC[C@@H](OC(=O)CCc1c[nH]c2ccccc12)[C@H]1OC[C@H](OC(=O)CCc2c[nH]c3ccccc23)[C@H]1OC(=O)CCc1c[nH]c2ccccc12` [Example 107, [(2R)-2-[(2R,3R,4S)-3,4-bis[3-(1H-indol-3-yl)propanoyloxy]tetrahydrofuran-2-yl]-2-[3-(1H-indol-3-yl)propanoyloxy]ethyl] 3-(1H-indol-3-yl)propanoate] were, in that order, “C (>75% of the tested compound remaining)” and “B (25-75% of the tested compound remaining)”.
For the compound `CC(=O)OCC[C@@H](C)OC(=O)Oc1ccc(/C=C/c2cc(OC(=O)O[C@H](C)CCOC(C)=O)cc(OC(=O)O[C@H](C)CCOC(C)=O)c2)cc1` [Example 178, [(3R)-3-[4-[(E)-2-[3,5-bis[[(1R)-3-acetoxy-1-methyl-propoxy]carbonyloxy]phenyl]vinyl]phenoxy]carbonyloxybutyl] acetate], in data set [1], the “Assay 2 (SGF) (% Remaining @ 4 hours)” value is listed as “C (>75% of the tested compound remaining)”. The “Assay 3 (SIF) (% @ Remaining 4 hours)” value in data set [2] was “A (<25% of the tested compound remaining)”.
Take `CCCC(=O)O[C@H](C)CC(=O)Oc1ccc2c(c1)oc(=O)c1cc(OC(=O)C[C@@H](C)OC(=O)CCC)c(OC(=O)C[C@@H](C)OC(=O)CCC)cc12` [Example 122, [8,9-bis[[(3R)-3-butanoyloxybutanoyl]oxy]-6-oxo-benzo[c]chromen-3-yl] (3R)-3-butanoyloxybutanoate]: in data set [1], the “Assay 2 (SGF) (% Remaining @ 4 hours)” value is given as “C (>75% of the tested compound remaining)”. Moreover, in data set [2], the “Assay 3 (SIF) (% @ Remaining 4 hours)” value is given as “A (<25% of the tested compound remaining)”.
With `CCCC(=O)Oc1ccc(/C=C/c2cc(OC(=O)CCC)cc(OC(=O)CCC)c2)cc1` [Example 7, [4-[(E)-2-[3,5-di(butanoyloxy)phenyl]vinyl]phenyl] butanoate], in data set [1], the “Assay 2 (SGF) (% Remaining @ 4 hours)” value was “C (>75% of the tested compound remaining)”. The “Assay 3 (SIF) (% @ Remaining 4 hours)” value in data set [2] is listed as “B (25-75% of the tested compound remaining)”.
The like results for `O=C(Cc1c[nH]c2ccccc12)Oc1ccc2c(c1)oc(=O)c1cc(OC(=O)Cc3c[nH]c4ccccc34)c(OC(=O)Cc3c[nH]c4ccccc34)cc12` [Example 55, [8,9-bis[[2-(1H-indol-3-yl)acetyl]oxy]-6-oxo-benzo[c]chromen-3-yl] 2-(1H-indol-3-yl)acetate] were, in that order, “C (>75% of the tested compound remaining)” and “B (25-75% of the tested compound remaining)”.
For `CCCC(=O)O[C@H]1[C@@H](OC(=O)CCC)COC(O)[C@@H]1OC(=O)CCC` (stereo partly drawn) [Example 140, [(3S,4S,5R)-4,5-di(butanoyloxy)-6-hydroxy-tetrahydropyran-3-yl] butanoate], the “Assay 2 (SGF) (% Remaining @ 4 hours)” value in data set [1] is given as “C (>75% of the tested compound remaining)”. Further, the “Assay 3 (SIF) (% @ Remaining 4 hours)” value in data set [2] is listed as “C (>75% of the tested compound remaining)”.
For `CC(O)CCOC(=O)c1cc(N)ccc1O` (stereo in doubt) [Example 112, [(3R)-3-hydroxybutyl] 5-amino-2-hydroxy-benzoate], the “Assay 2 (SGF) (% Remaining @ 4 hours)” value in data set [1] is “C (>75% of the tested compound remaining)”. Further, the “Assay 3 (SIF) (% @ Remaining 4 hours)” value in data set [2] is on record as “C (>75% of the tested compound remaining)”.
For `CC(=O)Oc1ccc2c(c1)oc(=O)c1cc(OC(C)=O)c(OC(C)=O)cc12` [Example 51, (8,9-diacetoxy-6-oxo-benzo[c]chromen-3-yl) acetate], the “Assay 2 (SGF) (% Remaining @ 4 hours)” value in data set [1] is listed as “C (>75% of the tested compound remaining)”. Moreover, the “Assay 3 (SIF) (% @ Remaining 4 hours)” value in data set [2] was “C (>75% of the tested compound remaining)”.
Consider `CCCC(=O)N1CCN(C(=O)CCC)CC1` [Example 130, 1-(4-butanoylpiperazin-1-yl)butan-1-one], for which, in data set [1], the “Assay 2 (SGF) (% Remaining @ 4 hours)” value is “C (>75% of the tested compound remaining)”. Besides, the “Assay 3 (SIF) (% @ Remaining 4 hours)” value in data set [2] is recorded as “C (>75% of the tested compound remaining)”.
In the case of `CCCC(=O)O[C@@H]1[C@@H](OC(=O)CCC)[C@@H](Oc2ccc(N)cc2C(=O)O)OC[C@@H]1OC(=O)CCC` [Example 121, 5-amino-2-[(2R,3R,4S,5S)-3,4,5-tri(butanoyloxy)tetrahydropyran-2-yl]oxy-benzoic acid], the “Assay 3 (SIF) (% @ Remaining 4 hours)” value in data set [2] is reported as “C (>75% of the tested compound remaining)”.
Still for that read-out and setting: as for `O=C(CCCc1ccccc1)Oc1ccc(/C=C/c2cc(OC(=O)CCCc3ccccc3)cc(OC(=O)CCCc3ccccc3)c2)cc1` [Example 9, [4-[(E)-2-[3,5-bis(4-phenylbutanoyloxy)phenyl]vinyl]phenyl] 4-phenylbutanoate], the entry is “C (>75% of the tested compound remaining)”.
With `CCCCCCCCCC(=O)Oc1ccc(/C=C/c2cc(OC(=O)CCCCCCCCC)cc(OC(=O)CCCCCCCCC)c2)cc1` [Example 70, [4-[(E)-2-[3,5-di(decanoyloxy)phenyl]vinyl]phenyl] decanoate], the “Assay 2 (SGF) (% Remaining @ 4 hours)” value in data set [1] is “C (>75% of the tested compound remaining)”.
In the case of `CCCCCCCC(=O)Oc1ccc2c(c1)oc(=O)c1cc(OC(=O)CCCCCCC)c(OC(=O)CCCCCCC)cc12` [Example 57, [8,9-di(octanoyloxy)-6-oxo-benzo[c]chromen-3-yl] octanoate], in data set [1], the “Assay 2 (SGF) (% Remaining @ 4 hours)” value is “C (>75% of the tested compound remaining)”.
Turning to `CC(C)(COC(=O)CCc1c[nH]c2ccccc12)[C@@H](OC(=O)CCc1c[nH]c2ccccc12)C(=O)NCCCOC(=O)CCc1c[nH]c2ccccc12` [Example 93, 3-[[(2R)-2,4-bis[3-(1H-indol-3-yl)propanoyloxy]-3,3-dimethyl-butanoyl]amino]propyl 3-(1H-indol-3-yl)propanoate], the “Assay 3 (SIF) (% @ Remaining 4 hours)” value in data set [2] is “A (<25% of the tested compound remaining)”.
For the compound `CCC(=O)O[C@H]1[C@H](OC(=O)CC)COC(OC(=O)CCc2c[nH]c3ccccc23)[C@@H]1OC(=O)CC` (stereo partly drawn) [Example 168, [(3R,4S,5R)-3,4,5-tri(propanoyloxy)tetrahydropyran-2-yl] 3-(1H-indol-3-yl)propanoate], the “Assay 2 (SGF) (% Remaining @ 4 hours)” value in data set [1] was “C (>75% of the tested compound remaining)”.
For `CCCC(=O)O[C@@H]1[C@@H](OC(=O)CCC)[C@H](Oc2ccccc2C(=O)O)OC[C@H]1OC(=O)CCC` [Example 120, 2-[(2S,3R,4S,5R)-3,4,5-tri(butanoyloxy)tetrahydropyran-2-yl]oxybenzoic acid], in data set [2], the “Assay 3 (SIF) (% @ Remaining 4 hours)” value is on record as “A (<25% of the tested compound remaining)”.
Consider `CCCCCCCC(=O)Oc1ccc(/C=C/c2cc(OC(=O)CCCCCCC)cc(OC(=O)CCCCCCC)c2)cc1` [Example 69, [4-[(E)-2-[3,5-di(octanoyloxy)phenyl]vinyl]phenyl] octanoate], for which the “Assay 2 (SGF) (% Remaining @ 4 hours)” value in data set [1] is “C (>75% of the tested compound remaining)”.
Turning to `O=C(Cc1c[nH]c2ccccc12)O[C@H]1CO[C@H]2[C@@H]1OC[C@H]2OC(=O)Cc1c[nH]c2ccccc12` [Example 109, [(3S,3aR,6R,6aR)-6-[2-(1H-indol-3-yl)acetyl]oxy-2,3,3a,5,6,6a-hexahydrofuro[3,2-b]furan-3-yl] 2-(1H-indol-3-yl) acetate], the “Assay 3 (SIF) (% @ Remaining 4 hours)” value in data set [2] was “A (<25% of the tested compound remaining)”.
